{
  "source": "patent US9605004B2",
  "about": "“Chemical compounds” (SYNGENTA LIMITED, priority 2013, dated 2017)",
  "key": {"[1]": {"test_system": "a variety of test species", "assay": "Post-emergence herbicidal activity (Example 8b, Table 3)", "assay_type": "in vivo", "details": "application post-emergence, rate 1000 g/ha, evaluated after 13 days, scale 0-5; for Herbicidal damage score, ABUTH: Abutilon theophrasti; for Herbicidal damage score, ALOMY: Alopecurus myosuroides; for Herbicidal damage score, AMARE: Amaranthus retroflexus; for Herbicidal damage score, ECHCG: Echinochloa crus-galli; for Herbicidal damage score, SETFA: Setaria faberi; for Herbicidal damage score, ZEAMX: Zea mays", "outline": "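Pot-grown seedlings sprayed 8 days after sowing with active ingredient in acetone/water (50:50) plus 0.5% Tween 20. Glasshouse at 24/16 °C day/night, 14 h light, 65% humidity, watered twice daily. Damage scored after 13 days on a 0–5 scale (5 = total damage, 0 = none).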"}, "[2]": {"test_system": "a variety of test species", "assay": "Pre-emergence herbicidal activity (Example 8a, Table 2)", "assay_type": "in vivo", "set-up": "key: 0 = no damage to plant, 5 = total damage to plant", "details": "application pre-emergence, rate 1000 g/ha, evaluated after 13 days", "outline": "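Pre-emergence spray, one day post-sowing; vehicle acetone/water (50:50) + 0.5% Tween 20, aqueous dilution. Glasshouse 24/16 °C, 14 h light, 65% RH, watering twice daily. Score at 13 d on 0–5 scale, 5 = total damage.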"}},
  "data": [
    {"smiles": "CC1=C(Br)C(=O)N(c2nn(C)c3c2CCC3(C)C)C1O", "note": "(stereo not drawn) [Compound N1]", "values": [
      {"measurement": "Herbicidal damage score, ABUTH", "setting": "[1]", "value": 5},
      {"measurement": "Herbicidal damage score, ALOMY", "setting": "[1]", "value": 5},
      {"measurement": "Herbicidal damage score, AMARE", "setting": "[1]", "value": 5},
      {"measurement": "Herbicidal damage score, ECHCG", "setting": "[1]", "value": 5},
      {"measurement": "Herbicidal damage score, SETFA", "setting": "[1]", "value": 5},
      {"measurement": "Herbicidal damage score, ZEAMX", "setting": "[1]", "value": 4},
      {"measurement": "Pre-emergence herbicidal activity, damage score ABUTH", "setting": "[2]", "value": 5},
      {"measurement": "Pre-emergence herbicidal activity, damage score ALOMY", "setting": "[2]", "value": 4},
      {"measurement": "Pre-emergence herbicidal activity, damage score AMARE", "setting": "[2]", "value": 5},
      {"measurement": "Pre-emergence herbicidal activity, damage score ECHCG", "setting": "[2]", "value": 4},
      {"measurement": "Pre-emergence herbicidal activity, damage score SETFA", "setting": "[2]", "value": 5},
      {"measurement": "Pre-emergence herbicidal activity, damage score ZEAMX", "setting": "[2]", "value": 4}
    ]},
    {"smiles": "COC1=C(Br)C(=O)N(c2nn(C)c(C(C)(C)C)c2Br)C1O", "note": "(stereo not drawn) [Compound O1]", "values": [
      {"measurement": "Herbicidal damage score, ABUTH", "setting": "[1]", "value": 0},
      {"measurement": "Herbicidal damage score, ALOMY", "setting": "[1]", "value": 0},
      {"measurement": "Herbicidal damage score, AMARE", "setting": "[1]", "value": 0},
      {"measurement": "Herbicidal damage score, ECHCG", "setting": "[1]", "value": 0},
      {"measurement": "Herbicidal damage score, SETFA", "setting": "[1]", "value": 0},
      {"measurement": "Herbicidal damage score, ZEAMX", "setting": "[1]", "value": 0},
      {"measurement": "Pre-emergence herbicidal activity, damage score ABUTH", "setting": "[2]", "value": 0},
      {"measurement": "Pre-emergence herbicidal activity, damage score ALOMY", "setting": "[2]", "value": 0},
      {"measurement": "Pre-emergence herbicidal activity, damage score AMARE", "setting": "[2]", "value": 0},
      {"measurement": "Pre-emergence herbicidal activity, damage score ECHCG", "setting": "[2]", "value": 0},
      {"measurement": "Pre-emergence herbicidal activity, damage score SETFA", "setting": "[2]", "value": 0},
      {"measurement": "Pre-emergence herbicidal activity, damage score ZEAMX", "setting": "[2]", "value": 0}
    ]},
    {"smiles": "COC1=C(C)C(O)N(c2cc3n(n2)CCC3(C)C)C1=O", "note": "(stereo not drawn) [Compound R1]", "values": [
      {"measurement": "Herbicidal damage score, ABUTH", "setting": "[1]", "value": 5},
      {"measurement": "Herbicidal damage score, ALOMY", "setting": "[1]", "value": 5},
      {"measurement": "Herbicidal damage score, AMARE", "setting": "[1]", "value": 5},
      {"measurement": "Herbicidal damage score, ECHCG", "setting": "[1]", "value": 5},
      {"measurement": "Herbicidal damage score, SETFA", "setting": "[1]", "value": 5},
      {"measurement": "Herbicidal damage score, ZEAMX", "setting": "[1]", "value": 5},
      {"measurement": "Pre-emergence herbicidal activity, damage score ABUTH", "setting": "[2]", "value": 5},
      {"measurement": "Pre-emergence herbicidal activity, damage score ALOMY", "setting": "[2]", "value": 4},
      {"measurement": "Pre-emergence herbicidal activity, damage score AMARE", "setting": "[2]", "value": 5},
      {"measurement": "Pre-emergence herbicidal activity, damage score ECHCG", "setting": "[2]", "value": 5},
      {"measurement": "Pre-emergence herbicidal activity, damage score SETFA", "setting": "[2]", "value": 5},
      {"measurement": "Pre-emergence herbicidal activity, damage score ZEAMX", "setting": "[2]", "value": 4}
    ]},
    {"smiles": "COC1=C(C)C(O)N(c2cc3n(n2)CCCC3(C)C)C1=O", "note": "(stereo not drawn) [Compound R2]", "values": [
      {"measurement": "Herbicidal damage score, ABUTH", "setting": "[1]", "value": 5},
      {"measurement": "Herbicidal damage score, ALOMY", "setting": "[1]", "value": 5},
      {"measurement": "Herbicidal damage score, AMARE", "setting": "[1]", "value": 5},
      {"measurement": "Herbicidal damage score, ECHCG", "setting": "[1]", "value": 5},
      {"measurement": "Herbicidal damage score, SETFA", "setting": "[1]", "value": 5},
      {"measurement": "Herbicidal damage score, ZEAMX", "setting": "[1]", "value": 4},
      {"measurement": "Pre-emergence herbicidal activity, damage score ABUTH", "setting": "[2]", "value": 5},
      {"measurement": "Pre-emergence herbicidal activity, damage score ALOMY", "setting": "[2]", "value": 4},
      {"measurement": "Pre-emergence herbicidal activity, damage score AMARE", "setting": "[2]", "value": 5},
      {"measurement": "Pre-emergence herbicidal activity, damage score ECHCG", "setting": "[2]", "value": 5},
      {"measurement": "Pre-emergence herbicidal activity, damage score SETFA", "setting": "[2]", "value": 5},
      {"measurement": "Pre-emergence herbicidal activity, damage score ZEAMX", "setting": "[2]", "value": 4}
    ]},
    {"smiles": "COC1=C(OC)C(O)N(c2cc(C(C)(C)C)n(C)n2)C1=O", "note": "(stereo not drawn) [Compound T1]", "values": [
      {"measurement": "Herbicidal damage score, ABUTH", "setting": "[1]", "value": 5},
      {"measurement": "Herbicidal damage score, ALOMY", "setting": "[1]", "value": 5},
      {"measurement": "Herbicidal damage score, AMARE", "setting": "[1]", "value": 5},
      {"measurement": "Herbicidal damage score, ECHCG", "setting": "[1]", "value": 5},
      {"measurement": "Herbicidal damage score, SETFA", "setting": "[1]", "value": 5},
      {"measurement": "Herbicidal damage score, ZEAMX", "setting": "[1]", "value": 3},
      {"measurement": "Pre-emergence herbicidal activity, damage score ABUTH", "setting": "[2]", "value": 5},
      {"measurement": "Pre-emergence herbicidal activity, damage score ALOMY", "setting": "[2]", "value": 4},
      {"measurement": "Pre-emergence herbicidal activity, damage score AMARE", "setting": "[2]", "value": 5},
      {"measurement": "Pre-emergence herbicidal activity, damage score ECHCG", "setting": "[2]", "value": 5},
      {"measurement": "Pre-emergence herbicidal activity, damage score SETFA", "setting": "[2]", "value": 4},
      {"measurement": "Pre-emergence herbicidal activity, damage score ZEAMX", "setting": "[2]", "value": 2}
    ]},
    {"smiles": "COC1=C(OC)C(O)N(c2cc(C(F)(F)F)n(C)n2)C1=O", "note": "(stereo not drawn) [Compound T2]", "values": [
      {"measurement": "Herbicidal damage score, ABUTH", "setting": "[1]", "value": 5},
      {"measurement": "Herbicidal damage score, ALOMY", "setting": "[1]", "value": 5},
      {"measurement": "Herbicidal damage score, AMARE", "setting": "[1]", "value": 5},
      {"measurement": "Herbicidal damage score, ECHCG", "setting": "[1]", "value": 5},
      {"measurement": "Herbicidal damage score, SETFA", "setting": "[1]", "value": 5},
      {"measurement": "Herbicidal damage score, ZEAMX", "setting": "[1]", "value": 5},
      {"measurement": "Pre-emergence herbicidal activity, damage score ABUTH", "setting": "[2]", "value": 5},
      {"measurement": "Pre-emergence herbicidal activity, damage score ALOMY", "setting": "[2]", "value": 4},
      {"measurement": "Pre-emergence herbicidal activity, damage score AMARE", "setting": "[2]", "value": 4},
      {"measurement": "Pre-emergence herbicidal activity, damage score ECHCG", "setting": "[2]", "value": 5},
      {"measurement": "Pre-emergence herbicidal activity, damage score SETFA", "setting": "[2]", "value": 5},
      {"measurement": "Pre-emergence herbicidal activity, damage score ZEAMX", "setting": "[2]", "value": 4}
    ]},
    {"smiles": "COC1=C(OC)C(O)N(c2cc3n(n2)CCC3(C)C)C1=O", "note": "(stereo not drawn) [Compound W1]", "values": [
      {"measurement": "Herbicidal damage score, ABUTH", "setting": "[1]", "value": 5},
      {"measurement": "Herbicidal damage score, ALOMY", "setting": "[1]", "value": 5},
      {"measurement": "Herbicidal damage score, AMARE", "setting": "[1]", "value": 5},
      {"measurement": "Herbicidal damage score, ECHCG", "setting": "[1]", "value": 5},
      {"measurement": "Herbicidal damage score, SETFA", "setting": "[1]", "value": 5},
      {"measurement": "Herbicidal damage score, ZEAMX", "setting": "[1]", "value": 5},
      {"measurement": "Pre-emergence herbicidal activity, damage score ABUTH", "setting": "[2]", "value": 5},
      {"measurement": "Pre-emergence herbicidal activity, damage score ALOMY", "setting": "[2]", "value": 4},
      {"measurement": "Pre-emergence herbicidal activity, damage score AMARE", "setting": "[2]", "value": 5},
      {"measurement": "Pre-emergence herbicidal activity, damage score ECHCG", "setting": "[2]", "value": 4},
      {"measurement": "Pre-emergence herbicidal activity, damage score SETFA", "setting": "[2]", "value": 5},
      {"measurement": "Pre-emergence herbicidal activity, damage score ZEAMX", "setting": "[2]", "value": 3}
    ]},
    {"smiles": "COC1=C(OC)C(O)N(c2cc3n(n2)CCCC3(C)C)C1=O", "note": "(stereo not drawn) [Compound W2]", "values": [
      {"measurement": "Herbicidal damage score, ABUTH", "setting": "[1]", "value": 5},
      {"measurement": "Herbicidal damage score, ALOMY", "setting": "[1]", "value": 5},
      {"measurement": "Herbicidal damage score, AMARE", "setting": "[1]", "value": 5},
      {"measurement": "Herbicidal damage score, ECHCG", "setting": "[1]", "value": 5},
      {"measurement": "Herbicidal damage score, SETFA", "setting": "[1]", "value": 5},
      {"measurement": "Herbicidal damage score, ZEAMX", "setting": "[1]", "value": 5},
      {"measurement": "Pre-emergence herbicidal activity, damage score ABUTH", "setting": "[2]", "value": 5},
      {"measurement": "Pre-emergence herbicidal activity, damage score ALOMY", "setting": "[2]", "value": 4},
      {"measurement": "Pre-emergence herbicidal activity, damage score AMARE", "setting": "[2]", "value": 5},
      {"measurement": "Pre-emergence herbicidal activity, damage score ECHCG", "setting": "[2]", "value": 4},
      {"measurement": "Pre-emergence herbicidal activity, damage score SETFA", "setting": "[2]", "value": 5},
      {"measurement": "Pre-emergence herbicidal activity, damage score ZEAMX", "setting": "[2]", "value": 4}
    ]}
  ]
}
